This note sets out measurements from the Kinase Knowledgebase extract (Sharma et al. 2016).

The target of the test is MAPK14 (human) (UniProt Q16539). The test can be described thus: Inhibition of MAPK14 Kinase Activity.

SMILES strings stand for the structures. pIC50: −log10 of the molar value.

Sequence of MAPK14 (human) (Q16539 whole entry, looked up): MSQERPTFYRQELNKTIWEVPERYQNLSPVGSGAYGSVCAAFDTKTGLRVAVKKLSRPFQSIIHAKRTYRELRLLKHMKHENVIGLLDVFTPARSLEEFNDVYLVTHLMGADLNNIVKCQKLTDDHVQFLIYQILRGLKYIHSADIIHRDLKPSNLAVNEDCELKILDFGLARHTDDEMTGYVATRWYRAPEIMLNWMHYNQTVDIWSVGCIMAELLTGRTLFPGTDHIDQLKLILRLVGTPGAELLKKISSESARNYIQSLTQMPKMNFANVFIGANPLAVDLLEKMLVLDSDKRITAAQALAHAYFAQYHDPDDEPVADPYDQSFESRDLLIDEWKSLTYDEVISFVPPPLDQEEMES

`Cc1ccc(C(=O)NC2CC2)cc1-n1ccnc(N[C@H](CC(=O)OC(C)(C)C)c2ccccc2)c1=O` had a pIC50 of 7.70.
Take `Cc1ccc(C(=O)NC2CC2)cc1-n1ccnc(N[C@@H](c2ccccc2)[C@@H](C)CN2CCC(C(N)=O)CC2)c1=O`: the pIC50 is 9.20. This pIC50 is 1.50 log units higher than that of the molecule before.
`CCC(CC)(Nc1nccn(-c2cc(C(=O)NC3CC3)ccc2C)c1=O)c1ccccc1OCCNC`: the negative logarithm of the IC50 (pIC50) was 9.40. Compared with the last molecule, the pIC50 is 0.20 log units higher.
With `CNCCCOc1ccccc1[C@@H]1CCCN1c1nccn(-c2cc(C(=O)NC3CC3)ccc2C)c1=O` the figure was 7.60; with `CNCCCOc1ccccc1[C@H]1CCCN1c1nccn(-c2cc(C(=O)NC3CC3)ccc2C)c1=O`, 8.90.
With `CCN(CC)CCOc1ccccc1C(C)(C)Nc1nccn(-c2cc(C(=O)NC3CC3)ccc2C)c1=O`, the pIC50 was 9.20.
In the case of `Cc1ccc(C(=O)NC2CC2)cc1-n1ccnc(NCC2Cc3ccccc3CN2)c1=O` (centres undefined), the pIC50 is 6.90.
On to `CCC(C)NC(=O)c1ccc(C)c(-n2ccnc(NCc3ccc(N4CCN(C)CC4)cc3)c2=O)c1` (centres undefined), for which the pIC50 is 6.00. This pIC50 is 0.90 log units lower than that of the molecule before.
Take `Cc1ccc(C(=O)NC2CC2)cc1-n1ccnc(N[C@H](CC(=O)N2CCN(C)CC2)c2ccccc2)c1=O`: the pIC50 was 7.60. Against the preceding molecule, the pIC50 is 1.60 log units higher.
Take `Cc1ccc(C(=O)NC2CC2)cc1-n1ccnc(NC(CC(=O)NC2CC2)c2ccccc2)c1=O` (centres undefined): the pIC50 was 7.50.
Regarding `Cc1ccc(C(=O)NC2CC2)cc1-n1ccnc(NCc2cccc(CNC(=O)OC(C)(C)C)c2)c1=O`, the pIC50 was 7.50.
Molecule `Cc1ccc(C(=O)NC2CC2)cc1-n1ccnc(N[C@@H](c2ccccc2)[C@@H](C)CN2CCCN(C)CC2)c1=O` showed a pIC50 of 9.00.
As for `Cc1ccc(C(=O)NC2CC2)cc1-n1ccnc(NC(c2ccccc2)C2CCN(C)CC2)c1=O` (centres undefined), the figure is 6.60; as for `Cc1ccc(C(=O)NC2CC2)cc1-n1ccnc(NCc2ccc(CNC(=O)OC(C)(C)C)cc2)c1=O`, 6.30.

In general, pIC50 refers to −log10 of the IC50, conventionally taken in molar units. A high value points to a low IC50.
